The text below walks through data of US8735345B2, “Therapeutic composition” (Hoffmann la Roche Inc., priority 2009, dated 2014).

The subject of one test is genotype 1 HCV. The experiment in a line: HCV RNA viral load determination (COBAS AmpliPrep/COBAS TaqMan HCV Test) in a randomized, double-blind, placebo controlled, dose ranging study. Format: in vivo, human. To be noted: monotherapy 750 mg, bid; after 7 days of treatment. The method, then:
A randomized, double-blind, placebo controlled, dose ranging study of Compound 1a and Compound 2 in adult patients with chronic hepatitis C genotype 1 was conducted. Approximately 54 treatment naïve males and females between 18 and 65 years of age (inclusive) with genotype 1 HCV infection who had not previously been treated with an interferon or investigational HCV therapeutic agent were enrolled. Approximately an additional 20 treatment patients who had failed treatment with the current standard of care (null, partial responders and relapsers) were enrolled. […] Subjects with liver cirrhosis or incomplete/transition to cirrhosis, or other forms of liver disease, anemia, HIV or HBV infection, hepatocellular carcinoma, cardiac disease or renal disease were excluded from this particular protocol, as well as pregnant or lactating women, women of childbearing potential, and male partners of women who are pregnant or lactating.
Seven groups, Groups I, II, III, IV, V, VI and VII, of subjects were studied. Blood samples were collected at time points to determine pharmacokinetics parameters, including Tmax, Cmax, Kel, T1/2, AUC, CL/F, Vd/F and accumulation ratio.
The specifics of Groups I, II, III, IV, V, VI and VII are shown in Table 1 below and pictorially in FIGS. 2 and 3. Group I included two arms with 8 subjects in Arm 1 and 8 subjects in Arm 2. […]
For orientation: Quantitative PCR measures a nucleic acid by following its amplification.

For another test, the system named is HCV replication. To be noted: cited from earlier work.

On to “diisobutyl ester prodrug of β-D-2′-deoxy-2′-fluoro-2′-C-methylcytidine [Compound 1a]”, for which, in the test with genotype 1 HCV, the “mean log change from baseline in HCV RNA viral load” value is reported as −1.3 log IU/mL. For the molecule `C[C@@]1(F)[C@H](O)[C@@H](CO)O[C@H]1n1ccc(N)nc1=O` [Compound 1, β-D-2′-deoxy-2′-fluoro-2′-C-methylcytidine], in the test on HCV replication, the “inhibition of HCV replication” value was “effective in inhibiting HCV replication”. As to `CC(C)(C)OC(=O)N[C@H]1CCCCCC=C[C@@H]2C[C@@]2(C(=O)NS(=O)(=O)C2CC2)NC(=O)[C@@H]2C[C@@H](OC(=O)N3Cc4cccc(F)c4C3)CN2C1=O` [Compound 2, (1S,4R,6S,14S,18R)-4-Fluoro-1,3-dihydro-isoindole-2-carboxylic acid 14-tert-butoxycarbonylamino-4-cyclopropanesulfonylaminocarbonyl-2,15-dioxo-3,16-diaza-tricyclo[14.3.0.04,6]nonadec-7-en-18-yl ester], the “inhibition of HCV replication” value in the test with HCV replication was “effective in inhibiting HCV replication”.
